Measured values: ChEMBL document CHEMBL3627608, “Crystal structures of human RIP2 kinase catalytic domain complexed with ATP-competitive inhibitors: Foundations for understanding inhibitor selectivity” (Bioorg Med Chem, 2015)

Tests used:
[1] = biological target: Tyrosine-protein kinase Lck (Homo sapiens) (UniProt P06239); assay: Inhibition of LCK (unknown origin) at 10 uM after 120 mins P33 radiolabeled kinase activity assay
[2] = biological target: T1, Myosin light chain kinase (Homo sapiens) (UniProt Q32MK0); assay: Inhibition of MYLK3 (unknown origin) at 10 uM after 120 mins P33 radiolabeled kinase activity assay
T1 sequence (whole entry): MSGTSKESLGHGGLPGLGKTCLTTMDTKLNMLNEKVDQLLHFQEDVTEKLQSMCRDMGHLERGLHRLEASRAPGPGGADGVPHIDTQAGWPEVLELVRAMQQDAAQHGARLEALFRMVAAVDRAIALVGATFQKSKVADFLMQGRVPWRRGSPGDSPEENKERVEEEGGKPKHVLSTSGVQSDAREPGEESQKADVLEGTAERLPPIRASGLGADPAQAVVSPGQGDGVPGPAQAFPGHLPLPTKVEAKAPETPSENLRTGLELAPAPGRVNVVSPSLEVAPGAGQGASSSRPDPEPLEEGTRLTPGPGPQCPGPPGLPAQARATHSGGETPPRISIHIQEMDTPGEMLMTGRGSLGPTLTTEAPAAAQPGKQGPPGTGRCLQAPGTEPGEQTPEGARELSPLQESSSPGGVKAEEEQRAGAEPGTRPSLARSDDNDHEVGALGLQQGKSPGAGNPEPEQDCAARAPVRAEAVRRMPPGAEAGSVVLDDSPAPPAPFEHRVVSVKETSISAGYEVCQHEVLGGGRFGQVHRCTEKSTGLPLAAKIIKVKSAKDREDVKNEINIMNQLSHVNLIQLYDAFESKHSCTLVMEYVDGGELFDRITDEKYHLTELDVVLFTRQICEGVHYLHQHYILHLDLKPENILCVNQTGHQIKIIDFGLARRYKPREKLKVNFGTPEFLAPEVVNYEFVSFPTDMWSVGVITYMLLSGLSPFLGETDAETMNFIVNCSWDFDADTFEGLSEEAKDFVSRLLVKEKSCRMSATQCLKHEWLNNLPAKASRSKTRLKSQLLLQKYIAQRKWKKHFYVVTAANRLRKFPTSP

[3] = biological target: CDK1/Cyclin A (Homo sapiens) (UniProt P06493+P20248); assay: Inhibition of CDK1/cyclin A (unknown origin) at 10 uM after 120 mins P33 radiolabeled kinase activity assay; type: protein-complex assay
[4] = biological target: Serine/threonine-protein kinase SIK2 (Homo sapiens) (UniProt Q9H0K1); assay: Inhibition of SIK2 (unknown origin) at 10 uM after 120 mins P33 radiolabeled kinase activity assay
[5] = biological target: Serine/threonine-protein kinase SIK3 (Homo sapiens) (UniProt Q9Y2K2); assay: Inhibition of SIK3 (unknown origin) at 10 uM after 120 mins P33 radiolabeled kinase activity assay
[6] = biological target: Cyclin-dependent kinase 5/CDK5 activator 1 (Homo sapiens) (UniProt Q00535+Q15078); assay: Inhibition of CDK5/p25 (unknown origin) at 10 uM after 120 mins P33 radiolabeled kinase activity assay; type: protein-complex assay
[7] = biological target: Cyclin-dependent kinase 18 (Homo sapiens) (UniProt Q07002); assay: Inhibition of PCTK3 (unknown origin) at 10 uM after 120 mins P33 radiolabeled kinase activity assay
[8] = biological target: Serine/threonine-protein kinase NIM1 (Homo sapiens) (UniProt Q8IY84); assay: Inhibition of NIM1 (unknown origin) at 10 uM after 120 mins P33 radiolabeled kinase activity assay
[9] = biological target: T2, Serine/threonine-protein kinase haspin (Homo sapiens) (UniProt Q8TF76); assay: Inhibition of Haspin (unknown origin) at 10 uM after 120 mins P33 radiolabeled kinase activity assay
T2 sequence (whole entry): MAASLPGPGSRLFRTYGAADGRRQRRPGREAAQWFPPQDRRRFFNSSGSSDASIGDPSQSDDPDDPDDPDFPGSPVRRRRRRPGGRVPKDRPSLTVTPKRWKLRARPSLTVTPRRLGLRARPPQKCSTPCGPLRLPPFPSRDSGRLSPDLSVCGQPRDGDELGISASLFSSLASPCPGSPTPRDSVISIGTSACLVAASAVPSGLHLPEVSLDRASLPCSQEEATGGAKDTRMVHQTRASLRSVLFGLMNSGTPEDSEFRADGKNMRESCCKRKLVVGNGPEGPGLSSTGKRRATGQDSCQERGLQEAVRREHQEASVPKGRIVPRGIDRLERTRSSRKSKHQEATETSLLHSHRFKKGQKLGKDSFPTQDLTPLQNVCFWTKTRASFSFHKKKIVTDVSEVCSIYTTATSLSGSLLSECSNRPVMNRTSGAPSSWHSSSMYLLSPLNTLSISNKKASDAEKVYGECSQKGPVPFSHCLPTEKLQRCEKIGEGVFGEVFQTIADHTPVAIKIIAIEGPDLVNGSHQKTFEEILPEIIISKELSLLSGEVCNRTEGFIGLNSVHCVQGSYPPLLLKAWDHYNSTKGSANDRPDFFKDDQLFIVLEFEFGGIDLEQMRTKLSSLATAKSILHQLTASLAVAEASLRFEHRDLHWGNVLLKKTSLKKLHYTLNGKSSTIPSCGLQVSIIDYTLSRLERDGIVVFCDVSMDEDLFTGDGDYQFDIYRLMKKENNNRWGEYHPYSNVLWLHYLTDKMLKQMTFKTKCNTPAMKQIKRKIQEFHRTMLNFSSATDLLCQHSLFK

Sequence of Serine/threonine-protein kinase SIK2 (Homo sapiens) (Q9H0K1 whole entry, looked up): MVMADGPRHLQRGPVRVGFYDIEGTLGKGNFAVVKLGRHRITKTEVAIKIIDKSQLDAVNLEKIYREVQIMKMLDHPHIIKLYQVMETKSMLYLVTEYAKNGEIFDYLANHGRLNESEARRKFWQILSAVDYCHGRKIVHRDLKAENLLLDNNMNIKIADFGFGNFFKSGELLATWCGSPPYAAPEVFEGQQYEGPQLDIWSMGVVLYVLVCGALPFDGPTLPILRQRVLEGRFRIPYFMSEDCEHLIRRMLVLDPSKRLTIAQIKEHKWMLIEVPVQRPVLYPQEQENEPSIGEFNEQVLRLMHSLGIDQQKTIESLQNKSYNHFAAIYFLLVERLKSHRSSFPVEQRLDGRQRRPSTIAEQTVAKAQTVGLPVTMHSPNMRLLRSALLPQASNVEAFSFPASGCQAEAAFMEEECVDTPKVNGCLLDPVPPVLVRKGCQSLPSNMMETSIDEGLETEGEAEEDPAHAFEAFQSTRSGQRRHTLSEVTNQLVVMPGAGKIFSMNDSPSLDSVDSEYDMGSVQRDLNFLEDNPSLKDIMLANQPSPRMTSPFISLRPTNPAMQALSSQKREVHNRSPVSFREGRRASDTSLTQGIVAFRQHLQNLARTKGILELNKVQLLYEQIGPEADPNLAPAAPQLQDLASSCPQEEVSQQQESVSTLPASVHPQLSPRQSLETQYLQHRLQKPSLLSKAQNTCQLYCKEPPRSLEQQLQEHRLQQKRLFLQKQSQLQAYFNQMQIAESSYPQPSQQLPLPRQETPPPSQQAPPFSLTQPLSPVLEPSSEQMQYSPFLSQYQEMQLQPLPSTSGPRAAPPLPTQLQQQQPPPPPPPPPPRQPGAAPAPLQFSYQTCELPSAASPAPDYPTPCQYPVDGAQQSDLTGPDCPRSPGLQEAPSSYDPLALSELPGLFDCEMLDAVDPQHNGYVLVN
Sequence of CDK1/Cyclin A (Homo sapiens) (P06493 whole entry, looked up): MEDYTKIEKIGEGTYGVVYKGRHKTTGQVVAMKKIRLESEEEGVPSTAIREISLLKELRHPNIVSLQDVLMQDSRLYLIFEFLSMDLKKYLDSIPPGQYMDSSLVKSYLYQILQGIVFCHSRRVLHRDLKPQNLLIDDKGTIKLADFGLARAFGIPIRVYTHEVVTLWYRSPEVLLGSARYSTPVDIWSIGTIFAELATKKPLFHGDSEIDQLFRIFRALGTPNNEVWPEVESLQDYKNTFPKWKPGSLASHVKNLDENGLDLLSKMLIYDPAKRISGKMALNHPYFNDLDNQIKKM
Sequence of CDK1/Cyclin A (Homo sapiens) (P20248 whole entry, looked up): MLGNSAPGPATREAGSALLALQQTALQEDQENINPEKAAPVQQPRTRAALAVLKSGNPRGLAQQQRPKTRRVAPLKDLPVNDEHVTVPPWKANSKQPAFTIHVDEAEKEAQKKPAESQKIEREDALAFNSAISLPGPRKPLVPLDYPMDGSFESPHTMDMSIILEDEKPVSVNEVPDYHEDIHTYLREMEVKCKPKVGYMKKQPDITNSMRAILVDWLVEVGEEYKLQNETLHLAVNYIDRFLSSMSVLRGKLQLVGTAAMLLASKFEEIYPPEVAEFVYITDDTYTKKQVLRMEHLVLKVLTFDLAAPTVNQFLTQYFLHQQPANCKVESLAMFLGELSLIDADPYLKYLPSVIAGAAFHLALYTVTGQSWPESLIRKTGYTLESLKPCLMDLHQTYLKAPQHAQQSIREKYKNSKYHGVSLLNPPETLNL
Sequence of Serine/threonine-protein kinase SIK3 (Homo sapiens) (Q9Y2K2 whole entry, looked up): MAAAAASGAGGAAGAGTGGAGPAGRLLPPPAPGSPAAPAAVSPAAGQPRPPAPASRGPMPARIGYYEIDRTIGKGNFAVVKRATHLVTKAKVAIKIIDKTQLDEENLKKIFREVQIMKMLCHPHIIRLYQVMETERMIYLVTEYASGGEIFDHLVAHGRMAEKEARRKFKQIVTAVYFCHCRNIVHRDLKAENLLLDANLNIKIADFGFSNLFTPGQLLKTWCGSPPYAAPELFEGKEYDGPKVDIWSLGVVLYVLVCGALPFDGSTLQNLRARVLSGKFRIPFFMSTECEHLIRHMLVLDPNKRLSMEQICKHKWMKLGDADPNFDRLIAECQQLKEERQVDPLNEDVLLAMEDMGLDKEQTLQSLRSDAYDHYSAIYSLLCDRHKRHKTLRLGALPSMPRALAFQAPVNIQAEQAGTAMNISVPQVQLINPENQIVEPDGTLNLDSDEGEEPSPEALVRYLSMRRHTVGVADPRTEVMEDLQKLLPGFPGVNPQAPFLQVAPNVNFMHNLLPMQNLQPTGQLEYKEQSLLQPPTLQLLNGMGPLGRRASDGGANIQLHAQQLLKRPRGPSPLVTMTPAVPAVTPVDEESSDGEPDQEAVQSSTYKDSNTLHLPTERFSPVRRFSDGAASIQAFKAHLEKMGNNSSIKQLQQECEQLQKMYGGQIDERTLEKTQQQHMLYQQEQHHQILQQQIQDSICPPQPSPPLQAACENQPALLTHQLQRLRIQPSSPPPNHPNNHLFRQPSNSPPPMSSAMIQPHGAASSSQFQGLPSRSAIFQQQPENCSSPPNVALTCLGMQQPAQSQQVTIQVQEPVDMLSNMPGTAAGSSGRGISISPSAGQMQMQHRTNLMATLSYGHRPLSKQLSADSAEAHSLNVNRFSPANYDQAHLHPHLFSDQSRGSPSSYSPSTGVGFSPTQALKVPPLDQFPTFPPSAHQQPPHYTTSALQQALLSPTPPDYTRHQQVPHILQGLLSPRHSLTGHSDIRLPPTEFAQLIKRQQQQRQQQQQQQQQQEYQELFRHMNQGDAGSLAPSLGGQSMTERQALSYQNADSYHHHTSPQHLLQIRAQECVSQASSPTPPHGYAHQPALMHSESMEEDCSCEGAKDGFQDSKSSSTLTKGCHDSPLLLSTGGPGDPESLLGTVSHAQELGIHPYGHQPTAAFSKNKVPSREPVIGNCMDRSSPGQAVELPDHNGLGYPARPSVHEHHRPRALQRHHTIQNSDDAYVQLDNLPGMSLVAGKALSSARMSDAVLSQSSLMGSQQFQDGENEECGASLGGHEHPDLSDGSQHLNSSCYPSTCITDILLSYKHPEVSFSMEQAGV
Sequence of Cyclin-dependent kinase 18 (Homo sapiens) (Q07002 whole entry): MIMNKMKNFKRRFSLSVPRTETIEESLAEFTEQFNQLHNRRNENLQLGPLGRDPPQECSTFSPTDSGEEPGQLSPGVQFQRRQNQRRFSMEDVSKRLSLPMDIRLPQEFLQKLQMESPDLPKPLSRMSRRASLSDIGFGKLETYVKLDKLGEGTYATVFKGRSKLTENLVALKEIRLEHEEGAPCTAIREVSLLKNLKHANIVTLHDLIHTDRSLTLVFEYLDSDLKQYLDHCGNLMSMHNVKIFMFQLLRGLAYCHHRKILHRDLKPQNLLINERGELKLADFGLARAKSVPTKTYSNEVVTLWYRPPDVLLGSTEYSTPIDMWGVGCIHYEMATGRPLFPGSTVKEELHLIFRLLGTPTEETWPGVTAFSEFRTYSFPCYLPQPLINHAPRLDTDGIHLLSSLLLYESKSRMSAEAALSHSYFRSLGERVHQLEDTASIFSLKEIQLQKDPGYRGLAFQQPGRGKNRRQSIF
Sequence of Tyrosine-protein kinase Lck (Homo sapiens) (P06239 2-509 limits assumed): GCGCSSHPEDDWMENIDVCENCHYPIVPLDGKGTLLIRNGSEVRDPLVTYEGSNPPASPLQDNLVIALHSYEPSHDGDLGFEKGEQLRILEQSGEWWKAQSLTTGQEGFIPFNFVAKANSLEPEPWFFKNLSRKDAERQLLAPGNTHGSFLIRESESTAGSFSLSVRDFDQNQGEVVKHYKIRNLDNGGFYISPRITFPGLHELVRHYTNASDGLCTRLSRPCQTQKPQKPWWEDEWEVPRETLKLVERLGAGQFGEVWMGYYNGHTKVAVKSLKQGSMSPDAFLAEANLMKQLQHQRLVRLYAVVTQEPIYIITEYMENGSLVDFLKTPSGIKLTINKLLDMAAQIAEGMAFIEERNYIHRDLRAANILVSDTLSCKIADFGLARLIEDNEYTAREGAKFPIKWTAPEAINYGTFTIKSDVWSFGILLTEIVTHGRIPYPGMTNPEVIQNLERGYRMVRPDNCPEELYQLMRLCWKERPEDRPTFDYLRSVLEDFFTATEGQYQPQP
Sequence of Serine/threonine-protein kinase NIM1 (Homo sapiens) (Q8IY84 whole entry): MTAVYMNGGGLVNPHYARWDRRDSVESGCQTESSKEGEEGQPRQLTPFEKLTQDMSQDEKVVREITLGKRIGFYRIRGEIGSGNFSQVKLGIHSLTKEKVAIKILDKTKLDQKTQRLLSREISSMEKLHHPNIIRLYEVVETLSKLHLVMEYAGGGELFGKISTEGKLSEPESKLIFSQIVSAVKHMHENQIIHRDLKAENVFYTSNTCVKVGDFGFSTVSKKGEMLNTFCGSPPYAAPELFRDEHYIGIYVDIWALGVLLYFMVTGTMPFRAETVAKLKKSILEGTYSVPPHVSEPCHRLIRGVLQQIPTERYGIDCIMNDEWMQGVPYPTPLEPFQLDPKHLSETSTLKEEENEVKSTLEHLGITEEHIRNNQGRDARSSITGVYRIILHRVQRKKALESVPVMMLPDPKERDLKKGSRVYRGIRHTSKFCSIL
Sequence of Cyclin-dependent kinase 5/CDK5 activator 1 (Homo sapiens) (Q00535 whole entry): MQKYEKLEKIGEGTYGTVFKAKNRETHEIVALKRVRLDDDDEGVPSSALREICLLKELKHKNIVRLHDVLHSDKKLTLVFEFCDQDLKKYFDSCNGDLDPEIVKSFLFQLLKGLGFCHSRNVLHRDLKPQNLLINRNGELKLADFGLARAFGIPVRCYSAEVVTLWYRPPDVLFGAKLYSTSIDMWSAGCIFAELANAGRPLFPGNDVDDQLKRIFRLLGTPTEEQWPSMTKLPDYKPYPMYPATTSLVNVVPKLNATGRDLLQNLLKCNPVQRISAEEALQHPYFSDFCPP
Sequence of Cyclin-dependent kinase 5/CDK5 activator 1 (Homo sapiens) (Q15078 99-307 partner limits assumed): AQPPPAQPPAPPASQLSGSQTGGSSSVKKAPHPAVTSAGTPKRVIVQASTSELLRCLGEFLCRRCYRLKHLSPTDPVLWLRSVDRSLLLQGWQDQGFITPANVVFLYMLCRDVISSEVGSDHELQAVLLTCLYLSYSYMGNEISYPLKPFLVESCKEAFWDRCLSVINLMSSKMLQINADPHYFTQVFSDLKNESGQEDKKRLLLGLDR

| SMILES | inhibition [1] | inhibition [2] | inhibition [3] | inhibition [4] | inhibition [5] | inhibition [6] | inhibition [7] | inhibition [8] | inhibition [9] |
| --- | --- | --- | --- | --- | --- | --- | --- | --- | --- |
| COCCNC(=O)c1ccc2c(c1)nc(-c1cnc(-c3ccc(Cl)cc3)[nH]1)n2CCOC | 52.8% | -0.74% | -6.11% | 17% | 6.53% | 1.93% | -6.38% | 3.72% | 11.4% |
| CS(=O)(=O)c1cccc(Nc2nccc(-c3sc(N4CCOCC4)nc3-c3cccc(NS(=O)(=O)c4c(F)cccc4F)c3)n2)c1 | 99.9% | -2.12% | 34.2% | 97.2% | 99.6% | 92.6% | 27.3% | 5.74% | 12.1% |
| CC(C)(C)c1cc(NC(=O)Nc2ccc(Oc3ccncc3)cc2)no1 | 95.3% | -2.01% | 7.46% | 19.2% | 9.52% | 49.4% | 92.2% | 4.76% | 12.3% |
